Assays:
[1] = test system: late passage (P11) pancreatic-derived stromal cell line; experiment: Two sequential high dose trichostatin A treatments (24 h each), gene expression by RT-PCR (Example 8); assay type: cell-based, human; conditions: for HNF-3 beta RT-PCR detection cycle / Pdx-1 RT-PCR detection cycle / glucagon RT-PCR detection cycle: 5.0 μM
Experimental: (§1) Several cell lines obtained from different amniotic fluid specimens (see Example 14) and pancreas donors (see Example 13) were tested with similar results. Two lines at similar passage number but derived from different amniotic fluid specimens are shown in Table VIII-A and Table VIII-B for this example. One of these cell lines was also used in examples 2 and 4 above. In addition, this example also contains comparison data in Table VIII-C and Table VIII-D for a single pancreatic-derived stromal line grown to early and late passage number.
(§2) Amniotic fluid derived cells or pancreatic-derived stromal cells were seeded into 24-well tissue culture plates at a density of 5000/cm^2 and cultured in AMNIOMAX (Invitrogen) or DMEM with 10% FBS respectively under standard cell culture conditions until confluent. After the cells reached confluency, amniotic fluid derived cells were treated at time 0 hours with a dose of 1.25 μM trichostatin A, and pancreatic-derived stromal cells were treated with a dose of 5.0 μM trichostatin A solubilized in DMSO and medium. At time 24 hours, cell cultures underwent a complete medium change to remove all traces of trichostatin A. At time 96 hours, cell cultures were re-fed with fresh medium and received a second dose of trichostatin A at the same concentration as used previously. At time 120 hours, cell cultures again underwent a complete medium change and were cultured for an additional 24 hours or […] total incubation time.
(§3) Samples were taken daily for RT-PCR at the times indicated in Table VIII-A to D. The culture media was removed, and samples were rinsed in PBS then collected in RLT with β-mercaptoethanol (Qiagen). RNA was purified using the RNeasy Mini Kit (Qiagen) and RNA quantity and quality were determined using a spectrophotometer. cDNA was made using the iScript cDNA synthesis kit (BioRad).
(§4) Samples of 20 ng cDNA were used in each reaction to determine the expression levels of the following genes in amniotic fluid-derived cells: Gata1, HNF-3 beta, Pdx-1, insulin, and Sox17. Similarly, samples of 20 ng cDNA were used in each reaction to determine the expression level of the following genes in pancreatic-derived cells: glucagon, HNF-3 beta, insulin and Pdx-1. Real-Time PCR was performed on the Applied Biosystems 7500, and data was analyzed using the accompanying software according to the methods described in Example 15.
(§5) Real-time PCR amplifcation and quantitative analysis. Unless otherwise stated, all reagents were purchased from Applied Biosystems. Real-time PCR reactions were performed using the ABI PRISM™ 7500 Sequence Detection System. TAQMAN™ FAST UNIVERSAL PCR MASTER MIX™ (ABI, CA) was used with 20 ng of reverse transcribed RNA in a total reaction volume of 20 μl. Each cDNA sample was run in duplicate to allow correction of pipetting errors. Primers and FAM-labeled TAQMAN™ probes were used at concentrations of 200 nM. The level of expression for each target gene was normalized using the pre-developed Applied Biosystem's human glyceraldehyde-3-phosphate dehydrogenase (GAPDH) endogenous control kit. Primers and probes were designed using either ABI PRISM PRIMER EXPRESS™ software or a pre-developed ABI gene analysis kit. For each gene, either one of the primers or the probe were designed to be exon-boundary spanning. This eliminated the possibility of the primers/probe binding to any genomic DNA present. The primer and probe sets are listed as follows: Pdx-1 (Hs00426216), Insulin (Hs00355773), glucagon (Hs00174967), and FoxA2 (HNF 3-beta) (Hs00232764). The remaining primers were designed using the PRIMERS program (ABI, CA). After an initial 95° C. incubation for 20 sec, samples were cycled 40 times in two stages: a denaturation step at 95° C. for 3 sec, followed by an annealing/extension step at 60° C. for 30 sec. […]

[2] = test system: amniotic fluid-derived cell line; experiment: as above; assay type: cell-based, human; conditions: for Gata1 gene expression / HNF-3 beta gene expression / Insulin gene expression / Pdx-1 gene expression / sox17 gene expression: 1.25 μM 0-24 h + 96-120 h
Experimental: as §1, §2, §3, §4, §5

[3] = 5 μM 0-24 h + 96-120 h, 120 hrs

In the case of CC(/C=C/C(=O)NO)=C\[C@@H](C)C(=O)c1ccc(N(C)C)cc1 [trichostatin A], the Pdx-1 gene expression ([1]; 5 μM 0-24 h + 96-120 h, 24 hrs) is reported as “+ (detectable at less than 35 cycles with SE greater than 0.9)”, the Insulin gene expression ([1]; 5 μM 0-24 h + 96-120 h, 48 hrs) is reported as “+ (detectable at less than 35 cycles with SE greater than 0.9)” and the glucagon gene expression ([1]; 5 μM 0-24 h + 96-120 h, 48 hrs) is reported as “+ (detectable at less than 35 cycles with SE greater than 0.9)”. For the same compound, the glucagon gene expression ([1]; 5 μM 0-24 h + 96-120 h, 72 hrs) was “+ (detectable at less than 35 cycles with SE greater than 0.9)”, the glucagon gene expression ([1]; 5 μM 0-24 h + 96-120 h, 96 hrs) was “+ (detectable at less than 35 cycles with SE greater than 0.9)” and the “HNF-3 beta gene expression” value [1, 3] was “+ (detectable at less than 35 cycles with SE greater than 0.9)”. The glucagon gene expression [1, 3] was “+ (detectable at less than 35 cycles with SE greater than 0.9)”, the glucagon gene expression ([1]; 5 μM 0-24 h + 96-120 h, 144 hrs) was “+ (detectable at less than 35 cycles with SE greater than 0.9)” and the “HNF-3 beta RT-PCR detection cycle” value ([1]; after the second treatment) was 36 cycles. For the same compound, the “HNF-3 beta RT-PCR detection cycle” value ([1]; following first treatment) was 32 cycles, the “Pdx-1 RT-PCR detection cycle” value ([1]; following first treatment) was 31 cycles and the “glucagon RT-PCR detection cycle” value ([1]; following first treatment) was 33 cycles. The “glucagon RT-PCR detection cycle” value ([1]; following the medium change) was 38 cycles, the “Pdx-1 RT-PCR detection cycle” value ([1]; following the second addition) was 34 cycles and the Gata1 gene expression ([2]; 24 hrs) was “+ (detectable between 35 and 40 cycles by RT-PCR)”. The “HNF-3 beta gene expression” value ([2]; 24 hrs) was “+++ (detectable at less than 35 cycles by RT-PCR with SE less than 0.9)”, the Insulin gene expression ([2]; 24 hrs) was “nd (not detectable at >40 cycles by RT-PCR)” and the Pdx-1 gene expression ([2]; 24 hrs) was “+++ (detectable at less than 35 cycles by RT-PCR with SE less than 0.9)”. For the same compound, the sox17 gene expression ([2]; 24 hrs) was “+++ (detectable at less than 35 cycles by RT-PCR with SE less than 0.9)”, the Gata1 gene expression ([2]; 48 hrs) was “nd (not detectable at >40 cycles by RT-PCR)” and the “HNF-3 beta gene expression” value ([2]; 48 hrs) was “+++ (detectable at less than 35 cycles by RT-PCR with SE less than 0.9)”. The Insulin gene expression ([2]; 48 hrs) was “nd (not detectable at >40 cycles by RT-PCR)”, the Pdx-1 gene expression ([2]; 48 hrs) was “nd (not detectable at >40 cycles by RT-PCR)” and the sox17 gene expression ([2]; 48 hrs) was “+++ (detectable at less than 35 cycles by RT-PCR with SE less than 0.9)”. The Gata1 gene expression ([2]; 72 hrs) was “nd (not detectable at >40 cycles by RT-PCR)”, the “HNF-3 beta gene expression” value ([2]; 72 hrs) was “+ (detectable between 35 and 40 cycles by RT-PCR)” and the Insulin gene expression ([2]; 72 hrs) was “+ (detectable between 35 and 40 cycles by RT-PCR)”. For the same compound, the Pdx-1 gene expression ([2]; 72 hrs) was “nd (not detectable at >40 cycles by RT-PCR)”, the sox17 gene expression ([2]; 72 hrs) was “+++ (detectable at less than 35 cycles by RT-PCR with SE less than 0.9)” and the Gata1 gene expression ([2]; 96 hrs) was “nd (not detectable at >40 cycles by RT-PCR)”. The “HNF-3 beta gene expression” value ([2]; 96 hrs) was “+ (detectable between 35 and 40 cycles by RT-PCR)”, the Insulin gene expression ([2]; 96 hrs) was “+ (detectable between 35 and 40 cycles by RT-PCR)” and the Pdx-1 gene expression ([2]; 96 hrs) was “nd (not detectable at >40 cycles by RT-PCR)”. For the same compound, the sox17 gene expression ([2]; 96 hrs) was “+++ (detectable at less than 35 cycles by RT-PCR with SE less than 0.9)”, the Gata1 gene expression ([2]; 120 hrs) was “nd (not detectable at >40 cycles by RT-PCR)” and the “HNF-3 beta gene expression” value ([2]; 120 hrs) was “+++ (detectable at less than 35 cycles by RT-PCR with SE less than 0.9)”. For the same compound, the Insulin gene expression ([2]; 120 hrs) was “nd (not detectable at >40 cycles by RT-PCR)”, the Pdx-1 gene expression ([2]; 120 hrs) was “+++ (detectable at less than 35 cycles by RT-PCR with SE less than 0.9)” and the sox17 gene expression ([2]; 120 hrs) was “+++ (detectable at less than 35 cycles by RT-PCR with SE less than 0.9)”. The Gata1 gene expression ([2]; 144 hrs) was “nd (not detectable at >40 cycles by RT-PCR)”, the “HNF-3 beta gene expression” value ([2]; 144 hrs) was “+++ (detectable at less than 35 cycles by RT-PCR with SE less than 0.9)” and the Insulin gene expression ([2]; 144 hrs) was “nd (not detectable at >40 cycles by RT-PCR)”. For the same compound, the Pdx-1 gene expression ([2]; 144 hrs) was “nd (not detectable at >40 cycles by RT-PCR)”, the sox17 gene expression ([2]; 144 hrs) was “+++ (detectable at less than 35 cycles by RT-PCR with SE less than 0.9)” and the “Gata-1 RT-PCR detection cycle” value ([2]; 1.25 μM, following the first addition) was 37 cycles. For the same compound, the “Insulin RT-PCR detection cycle” value ([2]; 1.25 μM, following the media change) was 36 cycles, the “HNF-3 beta RT-PCR detection cycle” value ([2]; 1.25 μM, initial treatment) was 32 cycles and the “Pdx-1 RT-PCR detection cycle” value ([2]; 1.25 μM, initial treatment (37 before treatment)) was 32 cycles. For the same compound, the “HNF-3 beta RT-PCR detection cycle” value ([2]; 1.25 μM, second treatment) was 32 cycles and the “Pdx-1 RT-PCR detection cycle” value ([2]; 1.25 μM, second treatment) was 34 cycles.

Reference: patent US20080063628A1, “METHODS TO PROMOTE CELL DIFFERENTIATION” (priority 2006, published 2008)
